Measurements published in patent publication US10443078B2, “Pichia kudriavzevii NG7 microorganism and uses thereof” (Korea Research Institute of Bioscience and Biotechnology, priority 2014, dated 2019).
Numbered stars: 1 amine (or outer) side, 2 acyl side, 3 side chain; on linkers, the order of the positions; unused ones are H or OH. Square brackets hold non-standard residues; d marks the D form. Peptide text beside a SMILES is read from it. X1 = CC[C@@H](C)[C@@H](O[*:1])C(=O)[*:2]; NMeVal(β-OH) = CN[C@H](C(=O)O)C(C)(C)O; NMeF = CN[C@@H](Cc1ccccc1)C(=O)O; aIle = CC[C@@H](C)[C@H](N)C(=O)O; NMeV = CN[C@H](C(=O)O)C(C)C

What was measured:
Assay in all cases: Antibiotic resistance of isolated microorganisms on YPD solid medium
Details in all cases: zeocin, G418, nourseothricin, hygromycin 100 μg/mL, cycloheximide 1 μg/mL, aureobasidin A 0.1 μg/mL, 30° C.
[1] = test system: 2-2 microorganism; assay type: cell-based, Pichia kudriavzevii
Experimental: (§1) The antibiotic resistance of the selected three different kinds of microorganisms to various antibiotics was examined. The antibiotics used were zeocin (100 μg/mL), G418 (100 μg/mL), cycloheximide (1 μg/mL), aureobasidin A (0.1 μg/mL), nourseothricin (100 μg/mL), and hygromycin (100 μg/mL). Each of the cell cultures of the isolated microorganisms was dotted on YPD solid medium (yeast extract (1%), peptone (2%), glucose (2%), and agar (2%)) and cultured at 30° C.

[2] = test system: NG7 microorganism; assay type: cell-based, Pichia kudriavzevii
Experimental: as §1

[3] = test system: NG1 microorganism; assay type: cell-based, Issatchenkia occidentalis
Experimental: as §1

| Molecule | Resistance of microorganism 2-2 to antibiotic [1] | Resistance of microorganism 2-2 to antibiotic ([1]; listed as aureobasidin A) | Resistance of microorganism NG7 to antibiotic [2] | Resistance of microorganism NG7 to antibiotic ([2]; listed as aureobasidin A) | Resistance of microorganism NG1 to antibiotic [3] | Resistance of microorganism NG1 to antibiotic ([3]; listed as aureobasidin A) | Resistance of microorganism 2-2 to antibiotic ([1]; listed as zeocin) | Resistance of microorganism NG7 to antibiotic ([2]; listed as zeocin) | Resistance of microorganism NG1 to antibiotic ([3]; listed as zeocin) | Resistance of microorganism 2-2 to antibiotic ([1]; listed as nourseothricin) | Resistance of microorganism NG7 to antibiotic ([2]; listed as nourseothricin) | Resistance of microorganism NG1 to antibiotic ([3]; listed as nourseothricin) | Resistance of microorganism 2-2 to antibiotic ([1]; listed as cycloheximide) | Resistance of microorganism NG7 to antibiotic ([2]; listed as cycloheximide) | Resistance of microorganism NG1 to antibiotic ([3]; listed as cycloheximide) |
| --- | --- | --- | --- | --- | --- | --- | --- | --- | --- | --- | --- | --- | --- | --- | --- |
| CC[C@@H](C)[C@@H]1NC(=O)[C@@H]2CCCN2C(=O)[C@H](Cc2ccccc2)N(C)C(=O)[C@H](Cc2ccccc2)NC(=O)[C@H](C(C)C)N(C)C(=O)[C@@H]([C@H](C)CC)OC(=O)[C@H](C(C)(C)O)N(C)C(=O)[C@H](CC(C)C)NC(=O)[C@H](C(C)C)N(C)C1=O [Aureobasidin A, aureobasidin A] (cyclo(F[NMeF]P[aIle][NMeV]L[NMeVal(β-OH)][X1][NMeV])) | − | no resistance | − | no resistance | − | no resistance |  |  |  |  |  |  |  |  |  |
| CN[C@@H]1[C@@H](O)[C@@H](O[C@@H]2[C@@H](O)[C@H](O[C@H]3O[C@H]([C@@H](C)O)[C@@H](O)[C@H](O)[C@H]3N)[C@@H](N)C[C@H]2N)OC[C@]1(C)O [G418] | resistance and + |  | resistance and + |  | resistance and + |  |  |  |  |  |  |  |  |  |  |
| Cc1c(N)nc([C@H](CC(N)=O)NC[C@H](N)C(N)=O)nc1C(=O)N[C@H](C(=O)N[C@H](C)[C@@H](O)[C@H](C)C(=O)N[C@H](C(=O)NCCC1=N[C@@H](c2nc(C(=O)NCCCCN=C(N)N)cs2)CS1)[C@@H](C)O)[C@@H](O[C@@H]1O[C@@H](CO)[C@@H](O)[C@H](O)[C@@H]1O[C@H]1O[C@H](CO)[C@@H](O)[C@H](OC(N)=O)[C@@H]1O)c1cnc[nH]1 [Zeocin, zeocin] | + |  | + |  | + |  | resistance | resistance | resistance |  |  |  |  |  |  |
| nourseothricin | − |  | − |  | − |  |  |  |  | no resistance | no resistance | no resistance |  |  |  |
| C[C@@H]1C[C@@H]([C@H](O)CC2CC(=O)NC(=O)C2)C(=O)[C@@H](C)C1 [Cycloheximide, cycloheximide] | + |  | + |  | + |  |  |  |  |  |  |  | resistance | resistance | resistance |
